Residue numbers refer to the chain shown, from its start. Read-outs that look alike come from different tables or passages of the source.
Columns and labels:
[1] = biological target: T1, human A3 receptor fused to YFP (A3-YFP) (Homo sapiens, UniProt P0DMS8); assay: Automated imaging of receptor internalization (granularity analysis), A3-YFP; assay type: cell-based; conditions: for Maximal internalization (%): percentage of internalization with 10 μM NECA in the cell line
T1 construct: cDNA encoding the full length human A3 receptor; expressed in transfected cells
T1 sequence (P0DMS8 1-318): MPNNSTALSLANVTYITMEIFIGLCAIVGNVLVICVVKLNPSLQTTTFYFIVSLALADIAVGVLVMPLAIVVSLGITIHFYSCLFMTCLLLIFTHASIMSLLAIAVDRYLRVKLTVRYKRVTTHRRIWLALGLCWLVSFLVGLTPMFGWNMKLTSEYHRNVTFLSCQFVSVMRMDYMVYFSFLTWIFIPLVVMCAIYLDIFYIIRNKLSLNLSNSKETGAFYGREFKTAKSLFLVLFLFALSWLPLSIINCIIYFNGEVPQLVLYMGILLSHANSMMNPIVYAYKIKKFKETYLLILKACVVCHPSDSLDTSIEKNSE
From the text: Immediately before experimentation, normal growth medium was replaced with serum-free medium. […] Medium was removed and cells were washed once in PBS. […] Images were obtained using an ImageXpress Ultra confocal plate reader (Molecular Devices, Sunnyvale, CA, USA). Four central images were obtained per well using a Plan Fluor 40x NA0.6 extra-long working distance objective. BiFC and YFP images were obtained by excitation with a 488 nm laser line with emission collected through a 525-550 nm band pass filter and H33342 images obtained by excitation with a 405 nm laser line and emission collected through a 447-460 nm band pass filter. Granularity analysis was performed on the resulting images using a granularity algorithm within MetaXpress software (Molecular Devices, Sunnyvale, CA, USA) and intensity above background was set for each individual experiment (Kilpatrick et al., [2010]). Areas of internalized receptors were identified by granularity analysis; granules were defined as having a diameter of between 7 and 15 μm and nuclei as having a diameter of between 6 and 9 μm, resulting in a measurement of the granule count per cell for each image. A basal and FSK control was included in each separate concentration-response CRE-SPAP gene transcription assay and cAMP accumulation assay to allow the responses in each cell line to be expressed as an inhibition of FSK-stimulated SPAP production. […] All data were fitted using non-linear regression in Prism 5 (GraphPad Software, San Diego, CA, USA). […] Statistical significance was determined by Student's unpaired t-test or by one-way ANOVA with Dunnett's post hoc analysis and P < 0.05 was considered statistically significant.

A3-YFP [2] = biological target: T2, A3-YFP (Homo sapiens, UniProt P0DMS8); assay: [3H]-cAMP accumulation assay, A3-YFP; assay type: cell-based; conditions: for Emax: read-out: Maximum response (% inhibition of 3 μM FSK), cAMP accumulation assay, A3-YFP cells, 1 h stimulation
T2 construct: cDNA encoding the full length human A3 receptor; expressed in transfected cells
T2 sequence (P0DMS8 1-318): T1 sequence (P0DMS8 1-318)
Protocol: On the day of analysis, cells were labelled with [^3H]-adenine (2 μCi·mL^−1) in a total volume of 600 μL per well for 2 h at 37°C/5% CO2 in normal growth medium. After 2 h, the [^3H]-adenine-containing medium was removed; cells washed once in serum-free medium and fresh serum-free medium, containing 10 μM rolipram, added. The required concentration of agonist was added to the appropriate well and cells incubated for 10 min at 37°C. After 10 min, 10 μM FSK was added to all wells, apart from basal wells, and cells were incubated for a further 1 h at 37°C. The assay was terminated by the addition of 50 μL concentrated HCl to each well. The levels of [^3H]-cAMP incorporated were measured by sequential Dowex and alumina chromatography and the efficiency of each column was determined by the recovery of [^14C]-cAMP as described by Donaldson et al. ([1988]).
(§1) A basal and FSK control was included in each separate concentration-response CRE-SPAP gene transcription assay and cAMP accumulation assay to allow the responses in each cell line to be expressed as an inhibition of FSK-stimulated SPAP production.

A3-YFP [3] = biological target: T2, A3-YFP; assay: CRE-SPAP gene transcription assay, A3-YFP; assay type: cell-based; conditions: A3-YFP cells; for agonist-mediated inhibition of SPAP production after PTx pre-incubation: PTx 100 ng·mL−1 overnight, 3 μM FSK; for Emax: read-out: Maximum response (% inhibition of 10 μM FSK), CRE-SPAP assay
Protocol: One day before analysis, normal growth medium was removed from the cells and replaced with serum-free medium (DMEM/F12 containing 2 mM L-glutamine). Where applicable, PTx (100 ng·mL^−1) was added at this stage. On the day of the assay, the medium was removed and replaced with fresh serum-free medium containing the required concentration of the agonist, and cells were incubated for 1 h at 37°C/5% CO2. After 1 h, the required concentration of forskolin (FSK) was added, and cells were incubated for a further 5 h at 37°C/5% CO2. Following the 5 h incubation, all medium was removed from the cells, 40 μL of fresh serum-free medium was added to each well and cells incubated for a further 1 h at 37°C/5% CO2. The plates were then incubated at 65°C for 30 min, to destroy any endogenous alkaline phosphatases.
as §1

A3-YFP [4] = biological target: T2, A3-YFP; assay: Fluorescence-based competition binding assay with CA200645, A3-YFP; conditions: A3-YFP cells, 25 nM CA200645, 60 min, 37°C
Protocol: (§2) On the day of analysis, normal growth medium was removed and cells washed once with HBSS pre-warmed to 37°C. […] Buffer was then removed from each well, cells washed once in HBSS and fresh HBSS added at room temperature. Plates were immediately imaged using an ImageXpress Ultra confocal plate reader, which captured four central images per well using a Plan Fluor 40× NA0.6 extra-long working distance objective. CA200645 was excited at 635 nm and emission collected through a 640–685 nm band pass filter. Total image intensity was obtained using a multiwave length cell scoring algorithm within MetaXpress software (Molecular Devices).
(§3) Time course experiments were fitted using a one phase association equation which is as follows [drawing 2] where Yo represents the level of internalization at time (t) equal to zero, Plateau is the maximal internalization at infinite time and K is the rate constant in […]. Statistical significance was determined by Student's unpaired t-test or by one-way ANOVA with Dunnett's post hoc analysis and P < 0.05 was considered statistically significant.

A3 W243F-YFP = biological target: T3, A3 W243F-YFP (Homo sapiens, UniProt P0DMS8, W243F); assay: Fluorescence-based competition binding assay with CA200645, A3 W243F-YFP; conditions: A3 W243F-YFP cells, 25 nM CA200645, 60 min, 37°C
T3 construct: Full length A3 W243F-YFP was excised and subcloned into a native pcDNA3.1 vector; expressed in transfected cells
T3 sequence (P0DMS8 1-318 W243F): T1 sequence (P0DMS8 1-318) with W243F
Protocol: as §2, §3

CCNC(=O)[C@H]1O[C@@H](n2cnc3c(N)ncnc32)[C@H](O)[C@@H]1O [NECA, 5-(N-ethylcarboxamido)adenosine]
Maximal internalization (%) ([1]; A3-YFP cells): 100%
Emax (A3-YFP [2]): 77.5 ± 6.9%
agonist-mediated inhibition of SPAP production after PTx pre-incubation (A3-YFP [3]): abolished
SPAP production in the absence of FSK (Gs coupling) (A3-YFP [3]; no FSK, with or without PTx): no increase in SPAP production
Emax (A3-YFP [3]): 65.8 ± 8.2%

CCCCC#Cc1nc(NC)c2ncn([C@@H]3O[C@H](CO)[C@@H](O)[C@H]3O)c2n1 [HEMADO, 2-(1-hexynyl)-N-methyladenosine]
EC50 ([1]; A3-YFP CHO CRE-SPAP cells, 45 min, granule count per cell, read-out: pEC50 (internalization) (converted)): 245 nM
EC50 ([1]; A3-YFP cells, PTx 100 ng·mL−1 overnight, read-out: pEC50 (internalization) in the presence of PTx (converted)): 282 nM
decrease in the maximal levels of internalization in the presence of PTx ([1]; A3-YFP cells, PTx pretreatment, reduction vs. 10 μM NECA internalization): 30 ± 6%
Maximal internalization (%) ([1]; A3-YFP cells): 105.1±11.0%
Ki (A3-YFP [4]): 33.1 nM
Ki (A3 W243F-YFP): 45.7 nM
Emax (A3-YFP [2]): 80 ± 5.1%
EC50 (A3-YFP [2]; read-out: pEC50 (cAMP accumulation assay) (converted)): 2.4 nM
EC50 (A3-YFP [3]; 5 h with FSK, read-out: pEC50 (CRE-SPAP assay) (converted)): 3.02 nM
agonist-mediated inhibition of SPAP production after PTx pre-incubation (A3-YFP [3]): no HEMADO-mediated response was observed
Emax (A3-YFP [3]): 73.2 ± 7.7%

— article PMC4128046, “Effect of a toggle switch mutation in TM6 of the human adenosine A3 receptor on Gi protein-dependent signalling and Gi-independent receptor internalization” (British Journal of Pharmacology, 2014)
